Data taken from patent US20180221306A1, “PHARMACEUTICAL COMPOSITIONS OF 5-HYDROXY-2-METHYLNAPHTHALENE-1,4-DIONE” (PellFiCure Pharmaceuticals, Inc., priority 2016, published 2018).

Test system: PTEN-P2/H2B-GFP mouse prostate cancer cells
Assay: IVM pseudo-orthotopic prostate chamber model, tumor size
Details: for Combination efficacy: the drug in combination with Compound I administered orally
Experimental: Male Nude mice (25-35 g body weight) are anesthetized (7.3 mg ketamine hydrochloride and 2.3 mg xylazine/100 g body weight, i.p.) and placed on a heating pad. Two symmetrical titanium frames are implanted into a dorsal skinfold, so as to sandwich the extended double layer of skin. A 15 mm full thickness circular layer is excised. The underlying muscle (M. cutaneous max.) and subcutaneous tissues are covered with a glass coverslip incorporated in one of the frames. After a recovery period of 2-3 days, prostate tissue and cancer cell spheroids are carefully placed in the chamber. Small circular Band Aids are applied on the backside of the chamber after surgery to prevent scratching. Before surgery, Buprenorphine (0.1 mg/kg) is given IP. After surgery Meloxicam is given in the drinking water for 4 days Meloxicam (5.0 mg/ml), is added at 35 μl per 100 ml of water to be medicated.
Mice are anesthetized with 7.3 mg ketamine hydrochloride and 2.3 mg xylazine/100 g body weight, i.p. A lateral incision across the scrotum is made and the testes are individually ligated and excised. The wound is cauterized. The incision is then sutured and sealed with Nexaband® acrylic.
Preparation of tumor spheroids: Liquid overlay plates were generated using 1% molecular biology grade agarose melted in cell culture medium and plated in round bottom 96 well plates at 50 ul/well. Tumor cells grown as pre-confluent monolayers were trypsinized and diluted to a final volume of 1,000,000 cells/ml. Viability was determined by Trypan blue. Cells were placed onto the cooled agarose (70 μl/well) and allowed to compact into spheroids for 24 hours. The spheroids were picked with a pipette and transferred into serum-free media for implantation in the chambers.
IntraVital Microscopy (IVM) can be used to visualize tumors in animals and analyze various aspects of cancer physiology such as tumor vascularization, cell migration and metastasis. An advantage of IVM includes the real-time analysis of dynamic processes with single-cell resolution. IntraVital microscopy offers the possibility to follow tumor growth in a non-invasive, non-destructive manner. The application of IVM can be limited to animal models that bear visually accessible tumors. Therefore, the dorsal skinfold chamber model described above can be compatible with IVM. Using IVM can permit a number of parameters to be measured in living animals and as a function of time, including tumor growth, angiogenesis, infiltration by immune cells, tumor cell migration, mitosis (cell-division) and apoptosis (programmed cell death), all in the context of the host and in real time.
Unless otherwise indicated, Compound I was administered by oral gavage in a sesame oil (Carrier A) formulation. Compound I was dissolved in DMSO then in oil at a concentration of 0.25 mg/ml (weight/volume) with a final DMSO concentration of 0.5% (vol/vol), and administered to mice at 1 mg/kg. In some experiments, Compound I dissolved in a mixture of poly-ethylene glycol/DMSO 30% (w/v) was administered via intra-peritoneal injection.
The efficacy of the formulation of Compound I in Carrier A for oral administration was compared to the previous formulation of Compound I in poly-ethylene glycol (PEG) for intra-peritoneal injection (i.p.). These experiments were performed using Intra Vital Microscopy (IVM) in a pseudo-orthotopic prostate chamber model in which minced prostate tissue is grafted in chambers surgically placed in the dorsal skinfold of mice, and allowed to vascularize. Small tumor cells spheroids were then placed on the prostate tissue, creating a biologically relevant prostatic environment. The tumor cells that express fluorescent H2B-GFP and can be detected in situ and in real-time through the microscopy window of the dorsal chamber.
Epithelial cell lines derived from the prostate tumor of a PTEN-null mouse were used. Mouse prostate cancer cells PTEN-P2 are heterozygous for PTEN deletion and do express protein PTEN.

Compound | Combination efficacy | further results
CNC(=O)c1ccc2cc(C3(O)CCn4cncc43)ccc2c1 (stereo not drawn) [orteronel, 6-(7-Hydroxy-6,7-dihydro-5H-pyrrolo[1,2-c]imidazol-7-yl)-N-methyl-naphthalene-2-carboxamide, reference compound] | Yes | Effect on tumor size, drug alone (orteronel alone): did not result in a reduction in tumor size
CC(O)(CS(=O)(=O)c1ccc(F)cc1)C(=O)Nc1ccc(C#N)c(C(F)(F)F)c1 (stereo not drawn) [bicalutamide, N-[4-cyano-3-(trifluoromethyl)phenyl]-3-[(4-fluorophenyl)sulfonyl]-2-hydroxy-2-methylpropanamide, reference compound] | No | Effect on tumor size, drug alone (bicalutamide alone, inhibited further tumor growth): did not result in a reduction of initial tumor size
CNC(=O)c1ccc(N2C(=S)N(c3ccc(C#N)c(C(F)(F)F)c3)C(=O)C2(C)C)cc1F [enzalutamide, (4-(3-(4-cyano-3-(trifluoromethyl)phenyl)-5,5-dimethyl-4-oxo-2-thioxoimidazolidin-1-yl)-2-fluoro-N-methylbenzamide), reference compound] | No | Effect on tumor size, drug alone (enzalutamide alone): did not result in a reduction in tumor size
CCNC(=O)[C@@H]1CCCN1C(=O)[C@H](CCCNC(=N)N)NC(=O)[C@H](CC(C)C)NC(=O)[C@@H](CC(C)C)NC(=O)[C@H](Cc1ccc(O)cc1)NC(=O)[C@H](CO)NC(=O)[C@H](Cc1c[nH]c2ccccc12)NC(=O)[C@H](Cc1c[nH]cn1)NC(=O)[C@@H]1CCC(=O)N1 [leuprolide, 5-oxo-L-prolyl-L-histidyl-L-tryptophyl-L-seryl-L-tyrosyl-D-leucyl-L-leucyl-L-arginyl-N-ethyl-Lprolinamide acetate, reference compound] | Yes | Effect on tumor growth, drug alone (leuprolide alone): arrested tumor growth after 15 days of treatment but did not decrease tumor sizes; Tumor size reached, relative to initial size (leuprolide alone (Lupron depot, 0.187 mg/mouse i.m. once)): 180%
C[C@]12CC[C@H](O)CC1=CC[C@@H]1[C@@H]2CC[C@]2(C)C(c3cccnc3)=CC[C@@H]12 [Abiratcrone, (3β)-17-(pyridin-3-yl)androsta-5,16-dien-3-ol, reference compound] | Yes | 
C[C@]12C=CC(=O)N[C@@H]1CC[C@@H]1[C@@H]2CC[C@]2(C)[C@@H](C(=O)Nc3cc(C(F)(F)F)ccc3C(F)(F)F)CC[C@@H]12 [dutasteride, (5α,17β)-N-{2,5-bis(trifluoromethyl)phenyl}-3-oxo-4-azaandrost-1-ene-17-carboxamide, reference compound] | Yes | Tumor size relative to initial size (dutasteride alone): 120%
